Tests used:
[1] = target: 3',5'-cyclic-AMP phosphodiesterase 4D (Homo sapiens, UniProt Q08499); test: Inhibition of PDE4D2 catalytic domain (86 to 413 residues) (unknown origin) using [3H]-cAMP as substrate after 15 mins by liquid scintillation counting method
[2] = target: High affinity cGMP-specific 3',5'-cyclic phosphodiesterase 9A (Homo sapiens, UniProt O76083); test: Inhibition of PDE9A2 catalytic domain (181 to 506 residues) (unknown origin) using [3H]-cGMP/[3H]-cAMP as substrate after 15 mins by liquid scintillation counting method
Chain of High affinity cGMP-specific 3',5'-cyclic phosphodiesterase 9A (O76083 whole entry, the tested form may be a part): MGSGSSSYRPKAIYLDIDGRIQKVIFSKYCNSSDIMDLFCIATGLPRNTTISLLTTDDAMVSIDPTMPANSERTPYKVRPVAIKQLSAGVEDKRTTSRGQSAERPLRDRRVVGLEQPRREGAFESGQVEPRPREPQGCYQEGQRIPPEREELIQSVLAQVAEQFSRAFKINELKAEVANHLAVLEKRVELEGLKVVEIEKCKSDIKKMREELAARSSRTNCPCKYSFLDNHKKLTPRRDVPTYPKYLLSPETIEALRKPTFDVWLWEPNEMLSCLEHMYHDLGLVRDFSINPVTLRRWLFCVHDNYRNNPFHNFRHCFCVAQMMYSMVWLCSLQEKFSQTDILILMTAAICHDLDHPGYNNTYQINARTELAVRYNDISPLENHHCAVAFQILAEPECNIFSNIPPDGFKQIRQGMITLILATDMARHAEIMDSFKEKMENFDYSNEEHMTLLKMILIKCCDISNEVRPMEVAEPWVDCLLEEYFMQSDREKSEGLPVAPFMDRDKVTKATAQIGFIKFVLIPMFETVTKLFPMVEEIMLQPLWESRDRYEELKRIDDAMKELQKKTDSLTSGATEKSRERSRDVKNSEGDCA

[3] = species: Homo sapiens; test: Selectivity index, ratio of IC50 for PDE10A2 catalytic domain (448 to 789 residues) (unknown origin) to IC50 for PDE4D2 catalytic domain (86 to 413 residues) (unknown origin)
[4] = species: Homo sapiens; test: Selectivity index, ratio of IC50 for PDE2A3 catalytic domain (222 to 904 residues) (unknown origin) to IC50 for PDE4D2 catalytic domain (86 to 413 residues) (unknown origin)
[5] = target: cGMP-dependent 3',5'-cyclic phosphodiesterase (Homo sapiens, UniProt O00408); test: Inhibition of PDE2A3 catalytic domain (222 to 904 residues) (unknown origin) using [3H]-cGMP/[3H]-cAMP as substrate after 15 mins by liquid scintillation counting method
Chain of cGMP-dependent 3',5'-cyclic phosphodiesterase (O00408 whole entry, the tested form may be a part): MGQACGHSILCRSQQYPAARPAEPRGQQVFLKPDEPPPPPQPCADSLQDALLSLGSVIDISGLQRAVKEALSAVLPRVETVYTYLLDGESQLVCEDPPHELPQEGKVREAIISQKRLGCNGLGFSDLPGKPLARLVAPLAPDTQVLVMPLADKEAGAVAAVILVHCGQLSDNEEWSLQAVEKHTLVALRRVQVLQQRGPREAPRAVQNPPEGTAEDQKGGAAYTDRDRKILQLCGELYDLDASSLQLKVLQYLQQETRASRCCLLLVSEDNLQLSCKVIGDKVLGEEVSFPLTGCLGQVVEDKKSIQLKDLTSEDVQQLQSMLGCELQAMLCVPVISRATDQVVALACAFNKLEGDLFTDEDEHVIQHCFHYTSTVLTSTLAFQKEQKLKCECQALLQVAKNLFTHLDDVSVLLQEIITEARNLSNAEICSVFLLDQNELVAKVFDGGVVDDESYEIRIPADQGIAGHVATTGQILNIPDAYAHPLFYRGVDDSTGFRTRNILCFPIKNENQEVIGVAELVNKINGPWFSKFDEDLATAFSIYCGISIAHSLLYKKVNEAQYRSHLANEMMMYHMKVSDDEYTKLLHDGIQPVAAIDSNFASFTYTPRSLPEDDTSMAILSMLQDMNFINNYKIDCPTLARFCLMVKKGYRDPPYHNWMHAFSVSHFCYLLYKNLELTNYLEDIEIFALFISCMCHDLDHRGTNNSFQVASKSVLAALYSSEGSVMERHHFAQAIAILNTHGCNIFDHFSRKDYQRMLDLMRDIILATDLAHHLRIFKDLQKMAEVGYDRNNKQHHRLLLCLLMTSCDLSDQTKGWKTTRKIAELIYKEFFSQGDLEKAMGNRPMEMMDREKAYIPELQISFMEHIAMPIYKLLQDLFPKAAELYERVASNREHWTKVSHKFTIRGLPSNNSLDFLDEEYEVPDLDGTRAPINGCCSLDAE

[6] = species: Homo sapiens; test: Selectivity index, ratio of IC50 for PDE1B2 catalytic domain (10 to 487 residues) (unknown origin) to IC50 for PDE4D2 catalytic domain (86 to 413 residues) (unknown origin)
[7] = target: cGMP-specific 3',5'-cyclic phosphodiesterase (Homo sapiens, UniProt O76074); test: Inhibition of PDE5A1 catalytic domain (535 to 860 residues) (unknown origin) using [3H]-cGMP as substrate after 15 mins by liquid scintillation counting method
[8] = species: Homo sapiens; test: Selectivity index, ratio of IC50 for PDE5A1 catalytic domain (535 to 860 residues) (unknown origin) to IC50 for PDE4D2 catalytic domain (86 to 413 residues) (unknown origin)
[9] = target: cAMP and cAMP-inhibited cGMP 3',5'-cyclic phosphodiesterase 10A (Homo sapiens, UniProt Q9Y233); test: Inhibition of PDE10A2 catalytic domain (448 to 789 residues) (unknown origin) using [3H]-cGMP/[3H]-cAMP as substrate after 15 mins by liquid scintillation counting method
Chain of cAMP and cAMP-inhibited cGMP 3',5'-cyclic phosphodiesterase 10A (Q9Y233 whole entry, the tested form may be a part): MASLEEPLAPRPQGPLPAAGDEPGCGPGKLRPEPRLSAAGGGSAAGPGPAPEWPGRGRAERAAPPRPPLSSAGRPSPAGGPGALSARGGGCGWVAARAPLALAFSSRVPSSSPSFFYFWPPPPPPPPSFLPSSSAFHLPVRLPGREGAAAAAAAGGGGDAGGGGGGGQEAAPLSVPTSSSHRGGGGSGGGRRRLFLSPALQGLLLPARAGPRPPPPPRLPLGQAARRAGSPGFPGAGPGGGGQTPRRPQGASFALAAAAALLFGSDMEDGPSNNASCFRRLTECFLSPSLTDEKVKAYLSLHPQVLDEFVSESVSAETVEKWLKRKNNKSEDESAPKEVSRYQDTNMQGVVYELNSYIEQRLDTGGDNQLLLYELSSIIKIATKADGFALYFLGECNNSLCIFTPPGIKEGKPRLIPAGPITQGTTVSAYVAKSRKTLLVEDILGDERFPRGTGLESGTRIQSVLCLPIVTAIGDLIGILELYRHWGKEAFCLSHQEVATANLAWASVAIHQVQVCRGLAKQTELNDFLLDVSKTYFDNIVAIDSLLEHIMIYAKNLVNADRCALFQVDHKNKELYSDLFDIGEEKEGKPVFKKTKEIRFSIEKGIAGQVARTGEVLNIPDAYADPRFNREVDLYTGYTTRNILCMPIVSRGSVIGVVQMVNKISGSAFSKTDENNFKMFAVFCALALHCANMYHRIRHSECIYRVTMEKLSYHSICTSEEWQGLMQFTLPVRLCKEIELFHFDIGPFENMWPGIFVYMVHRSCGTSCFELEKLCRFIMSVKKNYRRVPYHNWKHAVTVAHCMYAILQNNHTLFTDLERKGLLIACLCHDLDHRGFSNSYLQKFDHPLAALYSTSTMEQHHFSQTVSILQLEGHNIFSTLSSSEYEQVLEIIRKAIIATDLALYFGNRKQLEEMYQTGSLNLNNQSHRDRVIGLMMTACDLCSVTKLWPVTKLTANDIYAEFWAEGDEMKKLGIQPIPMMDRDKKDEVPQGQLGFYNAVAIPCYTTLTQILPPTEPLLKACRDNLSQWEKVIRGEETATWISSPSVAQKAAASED

[10] = target: Dual specificity calcium/calmodulin-dependent 3',5'-cyclic nucleotide phosphodiesterase 1B (Homo sapiens, UniProt Q01064); test: Inhibition of PDE1B2 catalytic domain (10 to 487 residues) (unknown origin) using [3H]-cGMP/[3H]-cAMP as substrate after 15 mins by liquid scintillation counting method
Chain of Dual specificity calcium/calmodulin-dependent 3',5'-cyclic nucleotide phosphodiesterase 1B (Q01064 whole entry, the tested form may be a part): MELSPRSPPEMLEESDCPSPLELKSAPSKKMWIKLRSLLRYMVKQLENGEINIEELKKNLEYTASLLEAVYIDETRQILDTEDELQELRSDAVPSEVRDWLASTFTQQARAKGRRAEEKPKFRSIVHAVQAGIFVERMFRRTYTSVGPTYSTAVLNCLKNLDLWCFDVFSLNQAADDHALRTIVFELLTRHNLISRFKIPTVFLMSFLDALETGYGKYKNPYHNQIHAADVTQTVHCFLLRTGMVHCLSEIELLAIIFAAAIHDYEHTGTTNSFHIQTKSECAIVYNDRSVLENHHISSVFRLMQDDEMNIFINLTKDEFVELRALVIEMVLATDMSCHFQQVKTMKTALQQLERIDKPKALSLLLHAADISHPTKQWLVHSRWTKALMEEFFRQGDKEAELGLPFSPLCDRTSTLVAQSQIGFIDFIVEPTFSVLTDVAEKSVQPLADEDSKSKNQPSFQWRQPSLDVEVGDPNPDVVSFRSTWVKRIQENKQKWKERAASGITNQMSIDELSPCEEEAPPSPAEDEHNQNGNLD

[11] = species: Homo sapiens; test: Selectivity index, ratio of IC50 for PDE9A2 catalytic domain (181 to 506 residues) (unknown origin) to IC50 for PDE4D2 catalytic domain (86 to 413 residues) (unknown origin)

Chain of 3',5'-cyclic-AMP phosphodiesterase 4D (Q08499 whole entry, the tested form may be a part): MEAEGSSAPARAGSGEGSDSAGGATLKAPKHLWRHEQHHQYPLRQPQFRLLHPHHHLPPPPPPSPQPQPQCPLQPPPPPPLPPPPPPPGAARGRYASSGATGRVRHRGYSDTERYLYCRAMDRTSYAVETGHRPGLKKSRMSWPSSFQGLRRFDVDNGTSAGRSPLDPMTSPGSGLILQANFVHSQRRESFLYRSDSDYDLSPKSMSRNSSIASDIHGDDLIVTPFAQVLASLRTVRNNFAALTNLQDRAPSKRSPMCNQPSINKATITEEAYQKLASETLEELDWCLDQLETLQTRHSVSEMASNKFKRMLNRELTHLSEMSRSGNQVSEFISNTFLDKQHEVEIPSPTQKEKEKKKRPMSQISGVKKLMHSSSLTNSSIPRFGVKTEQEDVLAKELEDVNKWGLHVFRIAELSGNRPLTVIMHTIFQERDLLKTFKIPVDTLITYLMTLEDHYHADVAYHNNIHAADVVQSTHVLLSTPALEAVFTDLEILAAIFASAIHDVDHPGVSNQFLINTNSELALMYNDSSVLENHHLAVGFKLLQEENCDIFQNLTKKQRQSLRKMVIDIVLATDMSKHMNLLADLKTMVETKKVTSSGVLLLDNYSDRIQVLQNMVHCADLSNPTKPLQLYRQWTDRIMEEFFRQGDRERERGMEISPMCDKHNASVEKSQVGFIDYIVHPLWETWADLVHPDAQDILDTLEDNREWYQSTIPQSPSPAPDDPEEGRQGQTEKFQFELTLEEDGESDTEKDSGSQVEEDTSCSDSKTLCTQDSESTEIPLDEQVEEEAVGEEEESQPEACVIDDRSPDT

Work on `C=C1CC[C@]2(C(=O)O)CC[C@]3(C)C(=CC[C@@H]4[C@@]5(C)C[C@@H](O)[C@@H](O)C(C)(C)[C@@H]5CC[C@]43C)[C@@H]2[C@H]1C` yielded an IC50 [1] greater than 20 µM.
With `CC1=CC(=O)CC(C)(C)[C@]1(O)/C=C/[C@@H](C)O` the IC50 [1] was greater than 20 µM.
In the case of `COc1cc([C@H]2c3c(cc(OC)c(O)c3OC)C[C@@H](CO)[C@@H]2CO[C@@H]2OC[C@@H](O)[C@H](O)[C@H]2O)cc(OC)c1O` [LYONISIDE], the IC50 [1] is reported as greater than 20 µM.
In the case of `COc1cc([C@H]2Oc3c(OC)cc(CCCO)cc3[C@@H]2CO[C@@H]2OC[C@@H](O)[C@H](O)[C@H]2O)ccc1O`, the IC50 [1] is reported as greater than 20 µM.
Work on `COc1cc(CCCO)cc(OC)c1O` yielded an IC50 [1] greater than 20 µM.
For `C=C1CC[C@]2(C(=O)O)CC[C@]3(C)C(=CC[C@@H]4[C@@]5(C)C[C@@H](O)[C@@H](OC(=O)/C=C/c6ccc(O)cc6)C(C)(C)[C@@H]5CC[C@]43C)[C@@H]2[C@H]1C`, the IC50 [2] was 4.83 µM, the Ratio IC50 [3] was greater than 82 and the Ratio IC50 [4] was greater than 204. It also gave an IC50 [5] greater than 50 µM, a Ratio IC50 [6] of 11 and an IC50 [7] of 3.81 µM. For the same molecule, the Ratio IC50 [8] was 16, the IC50 [9] was greater than 20 µM and the IC50 [1] was 0.245 µM. For the same molecule, the IC50 [10] was 2.63 µM and the Ratio IC50 [11] was 20.
`COc1cc([C@@H]2Oc3c(OC)cc(CCCO)cc3[C@H]2CO[C@@H]2OC[C@@H](O)[C@H](O)[C@H]2O)ccc1O` was tested, and the IC50 [1] was greater than 20 µM.
In the case of `COc1cc([C@H]2c3cc(O)c(OC)cc3C[C@@H](CO)[C@@H]2CO[C@@H]2OC[C@@H](O)[C@H](O)[C@H]2O)ccc1O`, the IC50 [1] is reported as greater than 20 µM.
`C=C1CC[C@]2(C(=O)O)CC[C@]3(C)C(=CC[C@@H]4[C@@]5(C)C[C@@H](O)[C@@H](OC(=O)/C=C\c6ccc(O)cc6)C(C)(C)[C@@H]5CC[C@]43C)[C@@H]2[C@H]1C` was tested, and the IC50 [1] was 0.542 µM.
